This is an account of results in ChEMBL document CHEMBL1148415, “Effects of C2-alkylation, N-alkylation, and N,N'-dialkylation on the stability and estrogen receptor interaction of (4R,5S)/(4S,5R)-4,5-bis(4-hydroxyphenyl)-2-imidazolines” (J Med Chem, 2004).

The term EC50 denotes the concentration giving half of the maximal effect. A low value points to higher potency in that assay. As a reminder, the half-life is the time needed for the level to fall by half in the phase considered. A lower half-life goes with fast loss.

Structures are written as SMILES.

The target in one series is T1, Estrogen receptor (Homo sapiens, UniProt P03372).
T1 sequence (P03372 whole entry): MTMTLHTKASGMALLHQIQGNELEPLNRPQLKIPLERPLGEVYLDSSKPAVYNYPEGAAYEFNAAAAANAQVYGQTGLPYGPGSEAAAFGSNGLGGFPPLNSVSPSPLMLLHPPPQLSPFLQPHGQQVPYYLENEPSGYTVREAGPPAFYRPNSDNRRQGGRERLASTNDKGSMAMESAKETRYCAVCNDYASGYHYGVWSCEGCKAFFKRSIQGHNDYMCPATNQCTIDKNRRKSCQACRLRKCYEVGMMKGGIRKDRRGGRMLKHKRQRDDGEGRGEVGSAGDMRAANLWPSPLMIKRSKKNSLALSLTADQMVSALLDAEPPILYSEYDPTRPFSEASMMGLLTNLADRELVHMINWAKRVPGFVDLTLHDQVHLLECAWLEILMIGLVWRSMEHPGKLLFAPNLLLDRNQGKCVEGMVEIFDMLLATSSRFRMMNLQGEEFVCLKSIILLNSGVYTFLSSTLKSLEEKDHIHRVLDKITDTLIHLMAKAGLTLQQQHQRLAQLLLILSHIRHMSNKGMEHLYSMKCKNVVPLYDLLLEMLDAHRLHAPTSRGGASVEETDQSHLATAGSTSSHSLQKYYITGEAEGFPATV
In words: Concentration required to activate luciferase expression in MCF-7-2a cells. Format: functional, cell-based.

A short description of series [1]: Half life at 7.4 pH. Format: ADME. To be noted: pH 7.4.
Series [2] in a line: Rate constant at 7.4 pH. To be noted: pH 7.4. Format: ADME.
Series [3] can be described thus: Rate constant at 7.4 pH; No decomposition was observed within 55h. Format: ADME. The conditions noted are these: pH 7.4, 55 h.
Series [4] is described as follows: Half life at 7.4 pH; No decomposition was observed within 55h. To be noted: pH 7.4, 55 h. Format: ADME.

`CN1C=[N+](C)[C@@H](c2ccc(O)cc2Cl)[C@H]1c1ccc(O)cc1Cl` yielded an EC50 at Estrogen receptor of 780 nM.

In turn, `Oc1ccc([C@H]2N=CN[C@H]2c2ccc(O)cc2)cc1` had a half-life in series [1] of 6.36 h. This compound gave a k obs in series [2] of 0.122 h⁻¹.

Consider `Oc1ccc([C@H]2NC=N[C@H]2c2ccc(O)cc2Cl)c(Cl)c1`, for which the half-life in series [1] was 5.94 h. Besides, the k obs in series [2] came out at 0.15 h⁻¹.

In series [1], `Oc1ccc([C@H]2N=CN[C@H]2c2c(Cl)cc(O)cc2Cl)c(Cl)c1` showed a half-life of 13.4 h. Further, the EC50 at Estrogen receptor came out at 65 nM. The same compound yielded a k obs in series [2] of 0.052 h⁻¹.

Regarding `CCN1C=N[C@@H](c2ccc(O)cc2Cl)[C@H]1c1ccc(O)cc1Cl`, the half-life in series [1] is 154 h. Further, the concentration for a half-maximal effect (EC50) at Estrogen receptor is 15 nM. Also, in series [2], the k obs is 0.004 h⁻¹.

On to `CCN1C=[N+](CC)[C@@H](c2ccc(O)cc2Cl)[C@H]1c1ccc(O)cc1Cl`, for which, in series [3], the k obs result is recorded as “Stable”. Further, the half-maximal effective concentration (EC50) at Estrogen receptor amounted to 500 nM. Moreover, in series [4], the T1/2 entry is “Stable”.

Regarding `OCCC1=N[C@H](c2ccc(O)cc2Cl)[C@H](c2ccc(O)cc2Cl)N1`, the k obs entry in series [3] is “Stable”. Also, the T1/2 entry in series [4] is given as “Stable”.

For `COc1ccc([C@H]2N=CN[C@H]2c2ccc(OC)cc2Cl)c(Cl)c1`, the half-life in series [1] is 4.58 h. The compound also gave a k obs in series [2] of 0.198 h⁻¹.

As for `CN1C=N[C@@H](c2ccc(O)cc2Cl)[C@H]1c1ccc(O)cc1Cl`, the EC50 on Estrogen receptor was 300 nM.

On Estrogen receptor, `CC1=N[C@@H](c2c(Cl)cc(O)cc2Cl)[C@@H](c2ccc(O)cc2Cl)N1` gave a concentration giving a half-maximal response (EC50) of 5000 nM.

With `N[C@H](c1ccc(O)cc1Cl)[C@@H](NC=O)c1ccc(O)cc1Cl`, a half-maximal effect at Estrogen receptor (EC50) was put at 3000 nM.

On to `N[C@H](c1ccc(O)cc1Cl)[C@@H](N)c1ccc(O)cc1Cl`, for which the response at Estrogen receptor was half-maximal at 1500 nM (EC50).

On to `CCCN1C=N[C@@H](c2ccc(O)cc2Cl)[C@H]1c1ccc(O)cc1Cl`, for which the response on Estrogen receptor was half-maximal at 150 nM (EC50).
